In patent US7632952B2, “Benzothiazoles and the use thereof as medicaments” (Aventis Pharma S.A., priority 2004, dated 2009) one finds IC50 and EC50 data, which are given here for 15 compounds.

By IC50 is commonly meant the concentration needed to halve the response being measured.

Structures can show the parent of a compound that is named as a salt. Where only a bound is given, the exact number is not on record here.

The target in one experiment is CDK4/cyclin D1 (Homo sapiens, UniProt P11802). The experiment in a line: CDK4/cyclin D1 Flashplate test in 96-well format. Type of experiment: biochemical. How it is done: 2. CDK4/cyclin D1 Protocol:
Purification of the CDK4-HA/cyclin D1-(His)6 Complex by IMAC (Immobilized Metal Affinity Chromatography):
Two recombinant baculoviruses bearing the human sequences coding, respectively, for CDK4-HA (C-terminal fusion with the hemaglutinin tag) and for cyclin D1-(His)6 are used to coinfect insect Sf9 cells. Sixty hours after the start of the coinfection, the cells are harvested by centrifugation and then frozen at −20° C. until the time of use.
CDK4/cyclin D1 Flashplate Test in 96-Well Format
A test in 96-well “Flashplate” plates coated with streptavidin is used to evaluate the inhibition of the CDK4/cyclin D1 kinase complex by the products of the invention. To perform this test, the biotinylated peptide substrate, a fragment of the pRb protein (biotinyl-[…]-amide) is dissolved at a concentration of 2 mM in kinase buffer (HEPES/NaOH 50 mM, NaCl 1 mM, MgCl2 5 mM, pH 7.5) in order to constitute a stock solution stored at −20° C. in the form of 110 μl aliquots. On the day of the experiment, an aliquot of this solution is thawed and diluted in kinase buffer containing 1 mM of dithiothreitol, and added to the buffer extemporaneously, in order to obtain a final peptide concentration of 2.571 μM. 70 μl of this solution are added to each well of the Flashplate in order to obtain a final substrate concentration of 1.8 μM during the enzymatic reaction, performed in a final volume of the reaction medium of 100 μl (cf. below). Intermediate dilutions of inhibitors (products of the invention) at various concentrations are prepared in DMSO from stock solutions at 10 mM in separate tubes. 1000 μM, 333.3 μM, 111.1 μM, 37.03 μM, 12.35 μM, 4.11 μM and 1.37 μM dilutions are thus prepared. 1 μl of each of these solutions (or 1 μl of DMSO for the controls) is then transferred into the wells of the test plate. Into each well are then added 19 μl of a solution of a mixture of adenosine triphosphate (ATP) and of ATPy^33P in the kinase buffer at a concentration of 5.26 μM of ATP total and 78.9 μCi/ml of ^33P. The enzymatic reaction is triggered by addition of 10 μl per well of a solution of CDK4/cyclin D1 at 250 nM in the kinase buffer containing 1 mM of dithiothreitol (or 10 μl of kinase buffer containing 1 mM of dithiothreitol for the reaction blanks).
After addition of all the reagents, the test plate is incubated at 30° C. with orbital stirring at 650 rpm. After the incubation, the plate is washed three times with 300 μl per well of PBS (phosphate-buffered saline, pH=7.4, without calcium or magnesium, reference 10010-015, Gibco BRL). The incorporation of ^33P into the substrate peptide is quantified by scintillation counting using a Packard Topcount.NXT machine. The inhibitory activity of the products of the invention is evaluated by measuring the inhibitory concentration that allows a 50% reduction in the enzymatic activity (IC50).

The next experiment addresses CDK2/cyclin E (Homo sapiens, UniProt P24941). The experiment in a line: CDK2/cyclin E Flashplate test in 96-well format. It counts as biochemical. Conditions: read-out: CDK2 IC50. The method, then:
1. Protocol CDK2/cyclin E:
Purification of the CDK2/cyclin E-(His)6 Complex by IMAC (Immobilized Metal Affinity Chromatography):
Two recombinant baculoviruses bearing the human sequences coding, respectively, for CDK2 and cyclin E (the latter comprising a C-terminal hexahistidine tag) are used to coinfect insect Sf21 cells. Two to three days after the start of coinfection, the cells are harvested by centrifugation and then stored at −40° C. until the time of use. After thawing and mechanical lysis of the cells, the complex present in the lysis supernatant is purified by affinity chromatography on nickel (IMAC), and stored at −80° C.
CDK2/cyclin E Flashplate Test in 96-Well Format
A format in 96-well plates coated with streptavidin is used to test the activity of the compounds on the kinase activity of CDK2/cyclin E.
To perform this test, the biotinylated peptide substrate, a fragment of the pRb protein (biotinyl-[…]-OH) is dissolved at a concentration of 1 mM in kinase buffer (HEPES/NaOH 50 mM, NaCl 1 mM, MgCl2 5 mM, pH 7.5) in order to constitute a stock solution stored at −20° C. in the form of 110 μl aliquots. On the day of the experiment, an aliquot of this solution is thawed and diluted in kinase buffer containing 1 mM of dithiothreitol, and added to the buffer extemporaneously, in order to obtain a concentration of 14.3 μM. 70 μl of this solution are added to each well of the Flashplate in order to obtain a final substrate concentration of 10 μM during the enzymatic reaction, performed in a final volume of the reaction medium of 100 μl (cf. below).
Intermediate dilutions of inhibitors (products of the invention) at various concentrations are prepared in DMSO from stock solutions at 10 mM in separate tubes. 1000 μM, 333.3 μM, 111.1 μM, 37.03 μM, 12.35 μM, 4.11 μM and 1.37 μM dilutions are thus prepared. 1 μl of each of these solutions (or 1 μl of DMSO for the controls) is transferred into the wells of the test plate.
Into each well are then added 19 μl of a solution of a mixture of adenosine triphosphate (ATP) and of ATPy^33P in the kinase buffer at a concentration of 5.26 μM of ATP total and 52.6 μCi/ml of ^33P. The enzymatic reaction is triggered by addition of 10 μl per well of a solution of CDK2/cyclin E at 200 nM in the kinase buffer containing 1 mM of dithiothreitol (or 10 μl of kinase buffer containing 1 mM of dithiothreitol for the reaction blanks).
After addition of all the reagents, the plate is incubated at 30° C. with orbital stirring at 650 rpm.
When the incubation is complete, the plate is washed three times with 300 μl per well of PBS (phosphate-buffered saline, pH=7.4, without calcium or magnesium, reference 10010-015, Gibco BRL). The incorporation of ^33P into the peptide is quantified by scintillation counting using a Packard Topcount.NXT machine. The inhibitory activity of the products of the invention is evaluated by measuring the inhibitory concentration that allows a 50% reduction in the enzymatic activity (IC50).

For a further experiment, the system named is HeLa. The experiment in a line: HeLa proliferation. Type of experiment: cell-based. Conditions: Homo sapiens, read-out: HeLa proliferation EC50 (nM) DG.

CDK4/cyclin D1, sequence (P11802 whole entry): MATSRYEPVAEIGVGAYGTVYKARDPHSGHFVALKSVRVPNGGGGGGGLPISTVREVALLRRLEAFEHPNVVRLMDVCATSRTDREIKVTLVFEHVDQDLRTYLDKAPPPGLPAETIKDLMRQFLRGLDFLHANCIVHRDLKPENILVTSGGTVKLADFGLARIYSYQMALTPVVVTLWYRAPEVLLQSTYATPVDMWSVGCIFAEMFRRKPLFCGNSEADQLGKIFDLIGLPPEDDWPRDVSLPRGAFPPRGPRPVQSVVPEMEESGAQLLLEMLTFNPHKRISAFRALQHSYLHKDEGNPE
CDK4/cyclin D1, sequence (P24385 whole entry partner): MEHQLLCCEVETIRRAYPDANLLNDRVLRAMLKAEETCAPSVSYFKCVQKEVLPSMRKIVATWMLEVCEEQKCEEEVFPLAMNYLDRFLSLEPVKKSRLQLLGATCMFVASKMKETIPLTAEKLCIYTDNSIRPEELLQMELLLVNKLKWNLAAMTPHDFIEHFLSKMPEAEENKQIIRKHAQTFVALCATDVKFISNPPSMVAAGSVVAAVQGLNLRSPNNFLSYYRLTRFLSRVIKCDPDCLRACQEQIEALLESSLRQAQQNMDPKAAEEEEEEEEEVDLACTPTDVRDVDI

`CC(C)CNc1ccc(S(=O)(=O)Oc2ccc3nc(NC(=O)CCCCCCCN)sc3c2)cc1` [Example 29b, 4-Isobutylaminobenzenesulfonic acid 2-(8-aminooctanoylamino)-benzothiazol-6-yl ester hydro-chloride]: the results for the half-inhibitory concentration (IC50) at CDK4/cyclin D1 and at CDK2/cyclin E were 0.368 µM and 0.161 µM, respectively. Also, the EC50 with HeLa came out at 8960 nM.

As for `CCC(=O)Nc1nc2ccc(OS(=O)(=O)c3ccc(NCCNC(C)C)cc3)cc2s1` [Example 71, 4-(2-isopropylaminoethylamino)benzenesulfonic acid 2-propionylaminobenzothiazol-6-yl ester; compound with trifluoroacetic], the IC50 on CDK4/cyclin D1 was found to be 0.424 µM; on CDK2/cyclin E, 0.175 µM. The EC50 in the experiment on HeLa came out at 2170 nM.

As to `CC(C)N(CCNc1ccc(S(=O)(=O)Oc2ccc3nc(NC(=O)CCCCCN)sc3c2)cc1)C(C)C` [Example 49, 4-(2-diisopropylaminoethylamino)benzenesulfonic acid 2-(6-aminohexanoylamino)benzothiazol-6-yl ester hydrochloride], the IC50 was found to be 0.328 µM at CDK4/cyclin D1 and 0.183 µM on CDK2/cyclin E. Also, in the experiment with HeLa, the EC50 is 2700 nM.

For the compound `CC(C)CNc1ccc(S(=O)(=O)Oc2ccc3nc(NC(=O)CCC4CCNCC4)sc3c2)cc1` [Example 29a, 4-Isobutylaminobenzenesulfonic acid 2-(3-piperid-4-ylpropionyl-amino)benzothiazol-6-yl ester hydrochloride], the IC50 is 0.573 µM at CDK4/cyclin D1 and 0.257 µM on CDK2/cyclin E. Moreover, the EC50 in the experiment with HeLa was determined as 1830 nM.

Turning to `CC(C)NCCNc1ccc(S(=O)(=O)Oc2ccc3nc(NC(=O)C4CCC4)sc3c2)cc1` [Example 77, 4-(2-isopropylaminoethylamino)benzenesulfonic acid (2-cyclobutanecarbonylamino)benzothiazol-6-yl ester; compound with trifluoroacetic acid], the IC50 at CDK4/cyclin D1 is 1.01 µM; at CDK2/cyclin E it was 0.419 µM. For the same compound, the EC50 in the experiment with HeLa was determined as 179 nM.

In the case of `COCC(=O)Nc1nc2ccc(OS(=O)(=O)c3ccc(NCCNC(C)C)cc3)cc2s1` [Example 67, 4-(2-isopropylaminoethylamino)benzenesulfonic acid 2-(2-methoxyacetylamino)benzothiazol-6-yl ester], the values for the IC50 against CDK4/cyclin D1 and on CDK2/cyclin E were 1.22 µM and 0.294 µM, respectively. Also, the EC50 in the experiment on HeLa is > 12500 nM.

With `CC(C)NCCNc1ccc(S(=O)(=O)Oc2ccc3nc(NC(=O)C(C)C)sc3c2)cc1` [Example 75, 4-(2-isopropylaminoethylamino)benzenesulfonic acid 2-isobutyrylaminobenzothiazol-6-yl ester; compound with trifluoroacetic acid], the IC50 against CDK4/cyclin D1 came to 0.874 µM; on CDK2/cyclin E, 0.445 µM. Besides, the EC50 in the experiment on HeLa is 195 nM.

For the compound `O=C(CCC1CCNCC1)Nc1nc2ccc(OS(=O)(=O)c3ccc(NCCCn4ccnc4)cc3)cc2s1` [Example 25a, 4-(3-Imidazol-1-ylpropyl-amino)benzenesulfonic acid 2-(3-piperid-4-ylpropionyl-amino)benzothiazol-6-yl ester hydrochloride], the 50% inhibitory concentration (IC50) at CDK4/cyclin D1 is 1.7 µM; at CDK2/cyclin E, 0.365 µM. For the same compound, the EC50 with HeLa is > 12500 nM.

For `CCCC(=O)Nc1nc2ccc(OS(=O)(=O)c3ccc(NCCNC(C)C)cc3)cc2s1` [Example 73, 4-(2-isopropylaminoethylamino)benzenesulfonic acid 2-butyrylaminobenzothiazol-6-yl ester; compound with trifluoroacetic acid], the values for the concentration for half-maximal inhibition (IC50) at CDK4/cyclin D1 and on CDK2/cyclin E were 0.246 µM and 0.185 µM, respectively. Further, the EC50 in the experiment with HeLa is 249 nM.

Take `O=C(CCC1CCNCC1)Nc1nc2ccc(OS(=O)(=O)c3ccc(NCCNCCO)cc3)cc2s1` [Example 25c, 4-[2-(2-Hydroxyethyl-amino)-ethylamino] benzenesulfonic acid 2-(3-piperid-4-ylpropionyl-amino)benzothiazol-6-yl ester hydrochloride]: the 50% inhibitory concentration (IC50) at CDK4/cyclin D1 came to 3.89 µM; at CDK2/cyclin E, 2.64 µM. The EC50 with HeLa was > 12500 nM.

For the compound `CC(C)CNc1ccc(S(=O)(=O)Oc2ccc3nc(NC(=O)CC4CCNCC4)sc3c2)cc1` [Example 28, 4-isobutylaminobenzenesulfonic acid 2-(2-piperid-4-ylacetylamino)benzothiazol-6-yl ester hydrochloride], the half-inhibitory concentration (IC50) was 0.399 µM against CDK4/cyclin D1 and 0.266 µM at CDK2/cyclin E. Also, in the experiment on HeLa, the EC50 was found to be 1330 nM.

`CCNCCNc1ccc(S(=O)(=O)Oc2ccc3nc(NC(=O)CCC4CCNCC4)sc3c2)cc1` [Example 25b, 4-(2-Ethylaminoethyl-amino)-benzenesulfonic acid 2-(3-piperid-4-yl-propionyl-amino)-benzo-thiazol-6-yl ester hydrochloride]: the IC50 worked out at 4.08 µM against CDK4/cyclin D1 and 5.87 µM on CDK2/cyclin E. Also, in the experiment on HeLa, the EC50 is 9960 nM.

Take `CCCC(=O)Nc1nc2ccc(OS(=O)(=O)c3ccc(NCCN(C(C)C)C(C)C)cc3)cc2s1` [Example 79, 4-(2-diisopropylaminoethylamino)benzenesulfonic acid 2-butyrylaminobenzothiazol-6-yl ester hydrochloride]: the IC50 is 0.07 µM on CDK4/cyclin D1 and 0.043 µM on CDK2/cyclin E. Besides, the EC50 in the experiment with HeLa is 140 nM.

On to `O=C(Nc1nc2ccc(OS(=O)(=O)c3ccc(NCCCCn4cnc(-c5cccnc5)c4)cc3)cc2s1)C1CC1` [Example 13, 4-[4-(4-pyrid-3-ylimidazol-1-yl)butylamino]-benzenesulfonic 2-(cyclopropanecarbonylamino)benzothiazol-6-yl ester], for which the IC50 on CDK4/cyclin D1 was 6.86 µM; at CDK2/cyclin E it was 0.678 µM. The EC50 in the experiment with HeLa came to 841 nM.

Take `CC(C)(O)CNc1ccc(S(=O)(=O)Oc2ccc3nc(NC(=O)CCCCCCCN)sc3c2)cc1` [Example 22d, 4-(2-Hydroxy-2-methyl-propylamino)benzene-sulfonic acid 2-(8-amino-octanoylamino)benzo-thiazol-6-yl ester hydro-chloride]: the concentration for half-maximal inhibition (IC50) came to 0.708 µM against CDK4/cyclin D1 and 0.069 µM at CDK2/cyclin E. Besides, the EC50 in the experiment on HeLa amounted to 5360 nM.
